What is called IC50 is the concentration that inhibits the measured activity by half.

This is an account of results in patent publication US10654808B2, “Tyrosine kinase inhibitor and pharmaceutical composition comprising same” (GUANGDONG RAYNOVENT BIOTECH CO., LTD., priority 2015, dated 2020).

One assay deals with HUVEC. As to the kind of experiment: CellTiter-Glo luminescent cell viability assay, HUVEC stimulated with hVEGF-165. It is filed as cell-based. Particulars: Homo sapiens, hVEGF-165 20 ng/ml, 72 hours, read-out: IC50 detected by CellTiter-Glo, HUVEC. The protocol:
The intracellular ATP changes were measured by CellTiter-Glo® Luminescent Cell Viability Assay. The IC50 value of the compounds was used as an index to evaluate the inhibitory effect of the compounds on HUVEC in vitro.
HUVEC cell line (ATCC), EGM-2 BulletKit (Lonza), hVEGF-165 (Cell Signaling), trypsin (Invitrogen), DPBS (Hyclone), 384 cell plate (Greiner), 384 compound plate (Greiner), CO2 incubator (Thermo), centrifuge (Eppendorf), Vi-cell cell counter (Beckman Coulter), Bravo Automatic Liquid Workstation (Agilent), Envision (Perkin Elmer)
B: Cell plating: HUVEC cells were resuspended with starved medium (only containing 2% FBS and 0.1% GA-1000) and diluted to a concentration of 20,000/mL. The diluted cells were added to a 384 plate (Greiner), 50 μl per well. The cell plates were placed in a 37° C., 5% CO2 incubator overnight.
C: Drug addition: the test compounds were diluted 4 times to obtain a total of 10 doses at a final concentration of 10 uM to 0.038 nM, two parallel wells. The middle plate was added with 47.6 uL of starved medium per well. 2.4 μl of compounds was transferred from a gradient dilution compound plate to a middle plate and mixed well. 5 μl of liquid was transferred from the middle plate to a cell plate. Incubate for 1 hour at 37° C. in a 5% CO2 incubator, 5 μl of starved medium containing hVEGF-165 (the final concentration was 20 ng/ml) and Heparin (the final concentration was 1 ng/m) were added and incubated at 37° C. in a 5% CO2 incubator for 72 hours.
D: After 72 hours, 30 μl of assay reagents was added and incubated at room temperature for 10-30 minutes, Envision was used to read the plate.
The reading was converted into suppression rate (%) (Max−Sample)/(Max−Min)*100%. Parameter curve fitting (Model 205 in XLFIT5, iDBS) was used to measure to obtain IC50 data.
For orientation: ATP-based viability assays read luminescence as a measure of living cells.

The next assay has as its target T1, PDGFRB (Homo sapiens, UniProt P09619).
T1 construct: purchased Millipore
Put plainly: Z'-LYTE in vitro enzyme activity assay, PDGFRB. Type of assay: biochemical. The note with it: 100 μM ATP, 60 minutes, room temperature; read-out: IC50 detected by Z'-LYTE, PDGFRB. Put shortly: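 Z′-LYTE FRET kinase assay using 40 nM PDGFRB, 2 μM Tyr4 peptide and 100 μM ATP in HEPES pH 7.5 with Mg2+/Mn2+ and 1% DMSO. The reaction ran 60 min at room temperature, followed by development for 60 min at 23 °C. IC50 values came from 4-parameter fits over 11 concentrations (10 μM–0.17 nM).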

In the next assay the target is T2, FGFR1 (Homo sapiens, UniProt P11362).
T2 construct: purchased Life technology
T2 sequence (P11362 22-822): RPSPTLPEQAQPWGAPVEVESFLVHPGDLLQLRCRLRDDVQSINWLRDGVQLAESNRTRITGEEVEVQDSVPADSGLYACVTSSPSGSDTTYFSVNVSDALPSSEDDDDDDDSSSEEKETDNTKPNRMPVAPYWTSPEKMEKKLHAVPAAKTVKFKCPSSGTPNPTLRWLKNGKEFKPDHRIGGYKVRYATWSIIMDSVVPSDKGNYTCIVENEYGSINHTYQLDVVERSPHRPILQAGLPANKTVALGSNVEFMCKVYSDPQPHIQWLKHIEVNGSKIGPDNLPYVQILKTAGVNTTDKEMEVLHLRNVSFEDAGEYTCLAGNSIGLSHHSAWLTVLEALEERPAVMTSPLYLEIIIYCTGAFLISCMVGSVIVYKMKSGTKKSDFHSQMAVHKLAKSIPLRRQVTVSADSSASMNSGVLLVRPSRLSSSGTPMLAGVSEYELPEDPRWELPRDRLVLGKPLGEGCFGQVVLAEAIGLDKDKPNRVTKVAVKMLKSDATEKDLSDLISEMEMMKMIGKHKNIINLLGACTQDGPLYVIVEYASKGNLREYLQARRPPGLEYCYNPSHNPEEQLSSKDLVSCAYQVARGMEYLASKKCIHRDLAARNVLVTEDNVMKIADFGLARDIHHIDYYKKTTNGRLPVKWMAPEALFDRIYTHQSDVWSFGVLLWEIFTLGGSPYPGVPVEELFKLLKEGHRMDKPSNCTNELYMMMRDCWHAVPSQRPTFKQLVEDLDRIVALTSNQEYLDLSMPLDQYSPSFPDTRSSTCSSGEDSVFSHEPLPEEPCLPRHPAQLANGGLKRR
As to the kind of experiment: Z'-LYTE in vitro enzyme activity assay, FGFR1. Type of assay: biochemical. Particulars: 25 μM ATP, 60 minutes, room temperature; read-out: IC50 detected by Z'-LYTE, FGFR1. The method in brief: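 Z′-LYTE FRET assay with 1 nM FGFR1, 2 μM Tyr4 peptide and 25 μM ATP in HEPES pH 7.5 with Mg/Mn, 60 min at room temperature, then development 60 min at 23 °C. Compounds tested at 11 concentrations from 10 μM to 0.17 nM in 1% DMSO. IC50 from 4-parameter fit of inhibition.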

The target of the next assay is T3, VEGFR2 (Homo sapiens, UniProt P35968).
T3 construct: purchased Life technology
T3 sequence (P35968 20-1356): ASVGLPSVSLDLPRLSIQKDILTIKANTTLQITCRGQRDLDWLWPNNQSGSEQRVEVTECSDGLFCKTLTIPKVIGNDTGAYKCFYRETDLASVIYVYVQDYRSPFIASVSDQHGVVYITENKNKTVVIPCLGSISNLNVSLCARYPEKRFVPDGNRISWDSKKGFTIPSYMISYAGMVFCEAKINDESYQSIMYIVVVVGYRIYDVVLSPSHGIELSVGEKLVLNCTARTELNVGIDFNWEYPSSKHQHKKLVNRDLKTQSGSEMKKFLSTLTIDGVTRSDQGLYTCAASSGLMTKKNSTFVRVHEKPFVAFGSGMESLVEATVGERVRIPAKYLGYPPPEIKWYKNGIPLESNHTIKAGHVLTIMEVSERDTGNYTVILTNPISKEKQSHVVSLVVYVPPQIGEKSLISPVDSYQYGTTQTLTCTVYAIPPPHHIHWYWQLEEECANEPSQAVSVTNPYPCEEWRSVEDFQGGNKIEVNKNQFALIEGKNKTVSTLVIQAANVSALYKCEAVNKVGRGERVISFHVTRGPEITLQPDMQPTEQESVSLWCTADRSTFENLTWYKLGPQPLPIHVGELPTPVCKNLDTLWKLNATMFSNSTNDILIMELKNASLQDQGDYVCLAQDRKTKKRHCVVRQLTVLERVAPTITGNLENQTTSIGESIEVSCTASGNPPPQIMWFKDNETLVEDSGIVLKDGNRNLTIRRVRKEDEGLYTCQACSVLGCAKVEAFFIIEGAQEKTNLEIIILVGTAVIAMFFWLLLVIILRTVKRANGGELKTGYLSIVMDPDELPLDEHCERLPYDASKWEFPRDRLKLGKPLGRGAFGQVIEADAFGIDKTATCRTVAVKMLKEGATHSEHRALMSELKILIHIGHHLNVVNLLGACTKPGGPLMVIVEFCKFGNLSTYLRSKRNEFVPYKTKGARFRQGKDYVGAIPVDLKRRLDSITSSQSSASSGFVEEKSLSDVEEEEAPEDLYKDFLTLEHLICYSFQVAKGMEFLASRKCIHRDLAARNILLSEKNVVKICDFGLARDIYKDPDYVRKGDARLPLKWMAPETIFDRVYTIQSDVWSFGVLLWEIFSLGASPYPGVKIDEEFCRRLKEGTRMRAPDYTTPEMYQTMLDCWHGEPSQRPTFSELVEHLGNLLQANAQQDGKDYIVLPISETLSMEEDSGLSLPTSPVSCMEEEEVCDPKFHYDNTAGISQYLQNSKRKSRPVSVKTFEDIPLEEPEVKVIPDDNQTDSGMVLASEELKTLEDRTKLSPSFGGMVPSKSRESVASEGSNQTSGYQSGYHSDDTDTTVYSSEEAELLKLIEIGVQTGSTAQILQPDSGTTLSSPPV
As to the kind of experiment: Z'-LYTE in vitro enzyme activity assay, VEGFR2. It is filed as biochemical. Particulars: 100 μM ATP, 60 minutes, room temperature; read-out: IC50 detected by Z'-LYTE, VEGFR2. The method in brief: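 Reaction with 3 nM VEGFR2, 2 μM Tyr1 peptide and 100 μM ATP in HEPES pH 7.5/MgCl2/EGTA/BRIJ-35, 1% DMSO, 60 min at room temperature; development reagent then 60 min at 23° C. Compounds tested at 11 threefold dilutions, 10 μM–0.17 nM final, in duplicate; IC50 from 4-parameter fit of inhibition.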

T1 sequence (P09619 33-1106): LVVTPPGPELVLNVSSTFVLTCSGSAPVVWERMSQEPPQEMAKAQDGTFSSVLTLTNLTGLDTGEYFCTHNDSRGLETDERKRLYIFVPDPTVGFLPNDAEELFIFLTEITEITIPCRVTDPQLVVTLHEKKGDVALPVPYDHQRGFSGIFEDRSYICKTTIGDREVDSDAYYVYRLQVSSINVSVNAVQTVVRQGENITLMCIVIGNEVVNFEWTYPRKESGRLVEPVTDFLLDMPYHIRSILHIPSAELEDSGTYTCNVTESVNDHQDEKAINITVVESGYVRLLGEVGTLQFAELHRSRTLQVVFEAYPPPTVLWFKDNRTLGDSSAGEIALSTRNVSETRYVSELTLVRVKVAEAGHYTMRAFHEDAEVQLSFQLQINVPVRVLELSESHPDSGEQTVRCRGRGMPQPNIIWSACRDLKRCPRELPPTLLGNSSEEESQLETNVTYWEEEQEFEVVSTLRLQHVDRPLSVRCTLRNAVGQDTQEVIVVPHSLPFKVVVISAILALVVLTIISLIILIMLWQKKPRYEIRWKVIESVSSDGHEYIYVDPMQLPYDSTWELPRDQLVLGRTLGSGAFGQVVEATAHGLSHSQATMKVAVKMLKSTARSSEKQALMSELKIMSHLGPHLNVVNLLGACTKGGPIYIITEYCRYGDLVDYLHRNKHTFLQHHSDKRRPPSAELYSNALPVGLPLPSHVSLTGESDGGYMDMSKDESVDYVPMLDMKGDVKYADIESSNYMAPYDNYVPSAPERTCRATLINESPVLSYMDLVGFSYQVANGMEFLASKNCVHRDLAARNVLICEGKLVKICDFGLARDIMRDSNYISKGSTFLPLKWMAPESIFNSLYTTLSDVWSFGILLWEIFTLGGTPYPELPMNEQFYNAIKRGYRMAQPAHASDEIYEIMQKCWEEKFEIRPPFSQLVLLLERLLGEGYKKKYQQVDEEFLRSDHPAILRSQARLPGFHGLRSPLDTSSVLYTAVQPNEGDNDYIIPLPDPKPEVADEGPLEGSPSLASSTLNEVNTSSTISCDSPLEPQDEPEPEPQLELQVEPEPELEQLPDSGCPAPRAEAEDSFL

Turning to `COc1cc2nccc(Oc3ccc(NC(=S)Nc4ccccc4)c(Cl)c3)c2cc1C(N)=O` [Example 2], the IC50 in the assay on HUVEC was less than 100 nM; at PDGFRB it was 50 to 200 nM; on FGFR1, 200 to 1000 nM; on VEGFR2 it was 50 to 200 nM.
Consider `COc1cc2nccc(Oc3ccc(NC(=S)NC4CCC4)c(Cl)c3)c2cc1C(N)=O` [Example 6], for which the IC50 is less than 100 nM in the assay on HUVEC, 50 to 200 nM on PDGFRB, 200 to 1000 nM at FGFR1 and less than 50 nM at VEGFR2.
For `COc1cc2nccc(Oc3ccc(NC(=S)NCC(F)F)c(Cl)c3)c2cc1C(N)=O` [Example 12], in that order: less than 100 nM, 50 to 200 nM, 50 to 200 nM and less than 50 nM.
For `COc1cc2nccc(Oc3ccc(NC(=S)NCC(F)(F)F)c(Cl)c3)c2cc1C(N)=O` [Example 16] the same measures were less than 100 nM, 50 to 200 nM, 200 to 1000 nM and less than 50 nM.
As for `COc1cc2nccc(Oc3ccc(NC(=S)N[C@H](C)CO)c(Cl)c3)c2cc1C(N)=O` [Example 21], the IC50 in the assay with HUVEC is less than 100 nM; on PDGFRB, 50 to 200 nM; on FGFR1 it was 200 to 1000 nM; at VEGFR2 it was less than 50 nM.
Take `CNC(=S)Nc1ccc(Oc2ccnc3cc(OC)c(C(N)=O)cc23)cc1Cl` [Example 28]: the IC50 with HUVEC was less than 100 nM; at PDGFRB, less than 50 nM; at FGFR1 it was 50 to 200 nM; on VEGFR2, less than 50 nM.
As for `COc1cc2nccc(Oc3ccc(NC(=S)NC4CC4)c(Cl)c3)c2cc1C(=O)NO` [Example 50], the IC50 in the assay on HUVEC was 100 to 1000 nM; at PDGFRB, 50 to 200 nM; at FGFR1 it was 200 to 1000 nM; at VEGFR2, less than 50 nM.
For the molecule `COc1cc2nccc(Oc3ccc(NC(=S)N(C)C)c(Cl)c3)c2cc1C(N)=O` [Example 55], the IC50 in the assay on HUVEC fell in the range of 100 to 1000 nM; on PDGFRB, 200 to 1000 nM; on FGFR1, 50 to 200 nM; on VEGFR2 it was 50 to 200 nM.
As for `CCNC(=S)Nc1ccc(Oc2ccnc3cc(OC)c(C(N)=O)cc23)cc1Cl` [Example 56], the IC50 with HUVEC was less than 100 nM; on PDGFRB, less than 50 nM; on FGFR1 it was 50 to 200 nM; at VEGFR2, less than 50 nM.
For `CCOCCCOc1cc2nccc(Oc3ccc(NC(=S)NC4CC4)c(Cl)c3)c2cc1C(N)=O` [Example 58], the 50% inhibitory concentration (IC50) in the assay with HUVEC was 100 to 1000 nM; at PDGFRB it was 50 to 200 nM; on FGFR1 it was 200 to 1000 nM; at VEGFR2, less than 50 nM.
As to `COc1cc2nccc(Oc3ccc(NC(=S)NCC4CC4)c(Cl)c3)c2cc1C(N)=O` [Example 59], the IC50 is 100 to 1000 nM with HUVEC, 50 to 200 nM on PDGFRB, 200 to 1000 nM on FGFR1 and less than 50 nM at VEGFR2.
For the molecule `COc1cc2nccc(Oc3ccc(NC(=S)Nc4cnn(C(C)C)c4)c(Cl)c3)c2cc1C(N)=O` [Example 70], the IC50 in the assay with HUVEC was less than 100 nM; at PDGFRB, less than 50 nM; at FGFR1 it was 200 to 1000 nM; at VEGFR2, less than 50 nM.
In the case of `COc1cc2nccc(Oc3ccc(NC(=S)NC4CC4)c(Cl)c3F)c2cc1C(N)=O` [Example 78], the IC50 in the assay with HUVEC was less than 100 nM; on PDGFRB, less than 50 nM; on FGFR1, 50 to 200 nM; on VEGFR2, less than 50 nM.
Turning to `COc1cc2nccc(Oc3ccc(NC(=S)N4CC(F)(F)C4)c(Cl)c3F)c2cc1C(N)=O` [Example 95], the IC50 with HUVEC is 100 to 1000 nM; at PDGFRB it was 50 to 200 nM; at FGFR1, 50 to 200 nM; on VEGFR2, less than 50 nM.
`COc1cc2nccc(Oc3ccc(NC(=S)N4CCCC4)c(Cl)c3F)c2cc1C(N)=O` [Example 98]: the IC50 with HUVEC was 100 to 1000 nM; at PDGFRB, 50 to 200 nM; on FGFR1, less than 50 nM; on VEGFR2, less than 50 nM.
On to `COc1cc2nccc(Oc3ccc(NC(=S)N4CC[C@H](F)C4)c(Cl)c3F)c2cc1C(N)=O` [Example 103], for which the IC50 is 100 to 1000 nM with HUVEC, 200 to 1000 nM at PDGFRB, 50 to 200 nM at FGFR1 and less than 50 nM on VEGFR2.
As to `[2H]C([2H])([2H])NC(=S)Nc1ccc(Oc2ccnc3cc(OC)c(C(N)=O)cc23)c(F)c1Cl` [Example 112], the IC50 is less than 100 nM with HUVEC, less than 50 nM on PDGFRB, less than 50 nM on FGFR1 and less than 50 nM on VEGFR2.
With `COc1cc2nccc(Oc3ccc(NC(=S)N4CC(F)C4)c(Cl)c3F)c2cc1C(N)=O` [Example 123], the IC50 in the assay with HUVEC was 100 to 1000 nM; on PDGFRB it was 50 to 200 nM; on FGFR1 it was less than 50 nM; on VEGFR2 it was less than 50 nM.
Regarding `CCNC(=S)Nc1ccc(Oc2ccnc3cc(OC)c(C(N)=O)cc23)c(F)c1Cl` [Example 124], the IC50 was less than 100 nM in the assay with HUVEC, less than 50 nM on PDGFRB, less than 50 nM on FGFR1 and less than 50 nM on VEGFR2.
Consider `Cc1c(OC[C@H](C)O)cn2ncnc(Oc3ccc(NC(=O)NC4CC4)c(Cl)c3)c12` [Example 127], for which the IC50 with HUVEC was less than 100 nM; on VEGFR2 it was less than 50 nM.
As to `COc1cc2nccc(Oc3ccc(Nc4c(NC5CC5)c(=O)c4=O)c(Cl)c3)c2cc1C(N)=O` [Example 130], the results for the IC50 in the assay with HUVEC and on VEGFR2 were 100 to 1000 nM and 200 to 1000 nM, respectively.
Turning to `COc1cc2nccc(Oc3ccc4nc(NC5CC5)sc4c3)c2cc1C(N)=O` [Example 131], the figures for the IC50 in the assay with HUVEC and on VEGFR2 were 100 to 1000 nM and 200 to 1000 nM, respectively.
Regarding `COCCOc1cc2nccc(Oc3ccc(NC(=S)NC4CC4)c(Cl)c3)c2cc1C(N)=O` [Example 174], the IC50 in the assay with HUVEC is less than 100 nM; at PDGFRB, less than 50 nM; at FGFR1, 200 to 1000 nM; on VEGFR2, less than 50 nM.
Take `COc1cc2nccc(Oc3ccc4c(C(=O)NC5CC5)coc4c3)c2cc1C(N)=O` [Example 185]: the IC50 is less than 100 nM in the assay with HUVEC, 200 to 1000 nM at PDGFRB, 50 to 200 nM on FGFR1 and less than 50 nM at VEGFR2.
For `COc1cc2nccc(Oc3ccc4oc(C(=O)N5CC(F)(F)C5)cc4c3)c2cc1C(N)=O` [Example 190], in that order: 100 to 1000 nM, 200 to 1000 nM, 200 to 1000 nM and 200 to 1000 nM.
Consider `COc1cc2nccc(Oc3ccc4oc(C(=O)NC5CC5)cc4c3)c2cc1C(N)=O` [Example 191], for which the IC50 in the assay with HUVEC was in the range of 100 to 1000 nM; on PDGFRB, 200 to 1000 nM; at FGFR1 it was 200 to 1000 nM; on VEGFR2, 200 to 1000 nM.
On to `COc1cc2nccc(Oc3cc4occ(C(=O)NC5CC5)c4cc3F)c2cc1C(N)=O` [Example 207], for which the IC50 in the assay on HUVEC is 100 to 1000 nM; on PDGFRB, less than 50 nM; on FGFR1, 200 to 1000 nM; at VEGFR2, less than 50 nM.
For `[2H]C([2H])([2H])NC(=O)c1coc2cc(Oc3ccnc4cc(OC)c(C(N)=O)cc34)c(F)cc12` [Example 209], the IC50 was 100 to 1000 nM with HUVEC, less than 50 nM at PDGFRB, 50 to 200 nM at FGFR1 and 50 to 200 nM at VEGFR2.
With `CCNC(=O)c1coc2cc(Oc3ccnc4cc(OC)c(C(N)=O)cc34)ccc12` [Example 210], the IC50 is less than 100 nM in the assay on HUVEC, less than 50 nM on PDGFRB, 200 to 1000 nM at FGFR1 and less than 50 nM on VEGFR2.
Take `Cn1cnc(-c2ccc3c(Oc4ccc(NC(=S)NC5CC5)c(Cl)c4)ccnc3c2)c1` [Example 212]: the IC50 in the assay with HUVEC was 100 to 1000 nM; at PDGFRB, less than 50 nM; at FGFR1, 200 to 1000 nM; on VEGFR2 it was less than 50 nM.
